PMC5866590 (Proceedings of the National Academy of Sciences of the …, 2018)
Read-outs that look alike come from different tables or passages of the source.

Biological target: T1, FmlHLD (Escherichia coli, UniProt Q1RBS0)
T1 sequence (Q1RBS0 25-184): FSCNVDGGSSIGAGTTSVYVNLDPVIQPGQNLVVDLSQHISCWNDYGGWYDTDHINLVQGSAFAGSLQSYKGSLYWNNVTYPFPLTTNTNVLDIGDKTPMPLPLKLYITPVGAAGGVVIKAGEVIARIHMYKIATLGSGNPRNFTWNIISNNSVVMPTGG
Assay type: binding, Escherichia coli (UPEC strain UTI89)
Conditions: for Percent inhibition (PI100) of FmlHLD binding to ds-BSM: mean with SEM in Table S2

[1] = Fig. 1B: 1 mM or 0.1 mM compounds

CC(=O)N[C@H]1C(O)O[C@H](CO)[C@H](O)[C@@H]1O (mixture of isomers) [GalNAc, N-acetylgalactosamine, reference compound]
Inhibition of FmlHLD binding to ds-BSM (in words) (compound at 1 mM): capable of inhibiting FmlHLD

OC[C@H]1O[C@@H](O[C@H]2[C@H](O)[C@@H](O)C(O)O[C@@H]2CO)[C@H](O)[C@@H](O)[C@H]1O (stereo partly drawn) [Lac, Gal(β1-4)Glc, reference compound]
Inhibition of FmlHLD binding to ds-BSM (in words) [1]: incapable of inhibiting FmlHLD

O=c1c(O[C@@H]2O[C@H](CO)[C@H](O)[C@H](O)[C@H]2O)c(-c2ccc(O)c(O)c2)oc2cc(O)cc(O)c12 [26β, quercetin galactoside]
Percent inhibition (PI100) of FmlHLD binding to ds-BSM (compound at 100 μM, 100 µM): 14%

OC[C@H]1O[C@@H](Oc2cc3c(O)cc(O)cc3[o+]c2-c2ccc(O)c(O)c2)[C@H](O)[C@@H](O)[C@H]1O [24β, cyanidin galactoside]
Percent inhibition (PI100) of FmlHLD binding to ds-BSM (compound at 100 μM, 100 µM): 29%

O=c1ccc2nc3ccc(O[C@@H]4O[C@H](CO)[C@H](O)[C@H](O)[C@H]4O)cc3oc-2c1 [15β]
Percent inhibition (PI100) of FmlHLD binding to ds-BSM (compound at 100 μM, 100 µM): 80%

OC[C@H]1O[C@@H](Oc2ccccc2)[C@H](O)[C@@H](O)[C@H]1O [1β, phenyl β-galactoside]
Percent inhibition (PI100) of FmlHLD binding to ds-BSM (compound at 100 μM, 100 µM): 77%

O=C[C@H](O)[C@@H](O)[C@@H](O)[C@H](O)CO [Gal, galactose, reference compound]
Inhibition of FmlHLD binding to ds-BSM (in words) (compound at 1 mM): capable of inhibiting FmlHLD

OC[C@H]1OC(O)[C@@H](O)[C@@H](O)[C@@H]1O (stereo partly drawn) [Man, mannose, reference compound]
Inhibition of FmlHLD binding to ds-BSM (in words) [1]: neither Man nor glucose (Glc) had any detectable effect

COc1cc(-c2[o+]c3cc(O)cc(O)c3cc2O[C@@H]2O[C@H](CO)[C@H](O)[C@H](O)[C@H]2O)ccc1O [25β]
Percent inhibition (PI100) of FmlHLD binding to ds-BSM (compound at 100 μM): 3.6%

CC(C)S[C@@H]1O[C@H](CO)[C@H](O)[C@H](O)[C@H]1O [36β-thio, isopropyl β-thiogalactoside, reference compound]
Inhibition of FmlHLD binding to ds-BSM (in words) (compound at 100 μM): minor inhibitory activity

CC(=O)N[C@@H]1[C@@H](O[C@@H]2O[C@H](CO)[C@H](O)[C@H](O)[C@H]2O)[C@@H](O)[C@@H](CO)O[C@@H]1O [TF, Gal(β1-3)GalNAc(α), reference compound]
Inhibition of FmlHLD binding to ds-BSM (in words) (compound at 1 mM): capable of inhibiting FmlHLD

OC[C@H]1OC(O)[C@H](O)[C@@H](O)[C@@H]1O (stereo partly drawn) [Glc, glucose, reference compound]
Inhibition of FmlHLD binding to ds-BSM (in words) [1]: neither Man nor glucose (Glc) had any detectable effect
